Measurements published in BindingDB's records for doi:10.1021/acschembio.5b00291 (Ujf-Embl-Cnrs, 2015).

Key:
Assay in all cases: Isothermal Titration Calorimetry (ITC)
Settings in all cases: pH 8; 25 °C
Leucine--tRNA ligase = target: T1, Leucine--tRNA ligase (Candida albicans (strain WO-1), UniProt C4YL05)
T1 sequence (C4YL05 whole entry): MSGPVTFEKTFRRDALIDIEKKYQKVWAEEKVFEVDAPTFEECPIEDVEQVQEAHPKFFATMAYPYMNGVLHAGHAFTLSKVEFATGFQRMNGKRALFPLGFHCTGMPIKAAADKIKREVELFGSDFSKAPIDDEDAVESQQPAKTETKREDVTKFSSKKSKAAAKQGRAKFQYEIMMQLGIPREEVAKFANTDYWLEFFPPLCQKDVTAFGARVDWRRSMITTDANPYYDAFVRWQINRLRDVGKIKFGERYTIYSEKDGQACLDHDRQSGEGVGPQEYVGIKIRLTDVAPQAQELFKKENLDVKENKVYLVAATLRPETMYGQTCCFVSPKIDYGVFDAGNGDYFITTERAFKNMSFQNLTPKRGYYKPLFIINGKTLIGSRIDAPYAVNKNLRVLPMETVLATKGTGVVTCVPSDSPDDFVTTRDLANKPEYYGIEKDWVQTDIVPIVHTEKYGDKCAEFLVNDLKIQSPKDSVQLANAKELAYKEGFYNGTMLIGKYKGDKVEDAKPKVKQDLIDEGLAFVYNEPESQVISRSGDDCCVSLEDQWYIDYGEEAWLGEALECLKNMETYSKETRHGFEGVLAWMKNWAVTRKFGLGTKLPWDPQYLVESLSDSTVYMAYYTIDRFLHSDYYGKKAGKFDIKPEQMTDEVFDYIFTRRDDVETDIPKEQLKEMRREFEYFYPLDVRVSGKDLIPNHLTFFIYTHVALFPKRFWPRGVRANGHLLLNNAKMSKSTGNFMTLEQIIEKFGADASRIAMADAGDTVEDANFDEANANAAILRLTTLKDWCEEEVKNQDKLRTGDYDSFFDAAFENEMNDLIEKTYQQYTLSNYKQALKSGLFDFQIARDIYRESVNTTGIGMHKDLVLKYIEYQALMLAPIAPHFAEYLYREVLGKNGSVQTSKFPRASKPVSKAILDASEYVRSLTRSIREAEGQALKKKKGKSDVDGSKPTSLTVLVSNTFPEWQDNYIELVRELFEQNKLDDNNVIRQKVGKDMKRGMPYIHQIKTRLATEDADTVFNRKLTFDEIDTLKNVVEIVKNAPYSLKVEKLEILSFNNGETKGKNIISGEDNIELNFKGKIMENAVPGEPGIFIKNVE
Experimental: (§1) ITC was performed using LeuRS CP1 domain wild-type, K510E mutant, or K510A mutant against AN2690-AMP at 25 °C by an ITC200 system (MicroCal, GE Healthcare). Wildtype protein and mutants were dialyzed against the titration buffer (50 mM HEPES-KOH, 30 mM KCl and 30 mM MgCl2, pH 8.0). Compound AN2690 and AMP were also prepared in the same buffer. A 60 μM protein solution was in the presence of 10 mM AMP in the calorimetric cell and titrated using 26 stepwise injections of 1.5 μL each with the compound AN2690 plus AMP. AN2690 solutions were placed in the syringe at 0.7 to 3 mM (depending on the expected affinity) along with 10 mM AMP. The heat generated after each ligand injection was measured base on the integral of the calorimetric signal. The resultant binding isotherms were analyzed by a nonlinear least-squares fit of the experimental data to a single site model using Microcal Origin 7.0 software. Experiments were duplicated and variability estimated to be 5% in the binding

[1] = target: Leucine--tRNA ligase [A132I,E138V,K510A,I952T] (Candida albicans (strain WO-1), UniProt A0A1D8PS12, A132I/E138V/I952T/K510A)
Leucine--tRNA ligase [A132I,E138V,K510A,I952T], sequence (A0A1D8PS12 whole entry A132I/E138V/K510A/I952T): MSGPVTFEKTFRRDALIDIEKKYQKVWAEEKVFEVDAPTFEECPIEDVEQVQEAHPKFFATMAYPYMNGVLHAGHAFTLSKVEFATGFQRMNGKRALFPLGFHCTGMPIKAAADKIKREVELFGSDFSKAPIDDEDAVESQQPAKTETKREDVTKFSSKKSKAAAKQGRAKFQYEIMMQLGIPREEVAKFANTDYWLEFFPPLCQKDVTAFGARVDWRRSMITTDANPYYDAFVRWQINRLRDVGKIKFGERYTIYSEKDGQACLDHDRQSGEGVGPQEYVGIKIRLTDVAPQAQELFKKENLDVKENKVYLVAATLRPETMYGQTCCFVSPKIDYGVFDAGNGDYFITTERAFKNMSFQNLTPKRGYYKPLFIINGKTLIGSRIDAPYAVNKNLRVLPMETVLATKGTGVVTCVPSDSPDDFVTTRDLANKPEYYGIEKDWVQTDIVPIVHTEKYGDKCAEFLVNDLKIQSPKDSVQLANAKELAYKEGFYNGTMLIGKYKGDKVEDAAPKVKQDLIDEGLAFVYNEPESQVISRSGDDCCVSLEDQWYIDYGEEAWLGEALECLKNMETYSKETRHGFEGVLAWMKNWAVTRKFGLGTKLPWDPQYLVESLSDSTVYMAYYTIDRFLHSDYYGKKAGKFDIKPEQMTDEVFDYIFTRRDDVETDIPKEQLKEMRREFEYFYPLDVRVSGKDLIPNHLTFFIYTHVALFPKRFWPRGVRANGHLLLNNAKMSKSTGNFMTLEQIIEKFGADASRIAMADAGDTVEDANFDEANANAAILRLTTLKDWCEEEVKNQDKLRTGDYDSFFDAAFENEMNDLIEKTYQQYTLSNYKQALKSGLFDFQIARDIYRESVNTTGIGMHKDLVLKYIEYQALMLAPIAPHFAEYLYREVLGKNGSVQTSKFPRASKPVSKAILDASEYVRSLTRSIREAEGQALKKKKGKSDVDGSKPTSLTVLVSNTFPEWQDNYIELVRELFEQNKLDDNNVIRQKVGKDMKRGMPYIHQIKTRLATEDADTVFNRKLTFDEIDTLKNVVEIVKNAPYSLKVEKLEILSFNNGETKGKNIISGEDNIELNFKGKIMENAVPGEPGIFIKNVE
Experimental: as §1

[2] = target: Leucine--tRNA ligase [A132I,E138V,K510E,I952T] (Candida albicans (strain WO-1), UniProt A0A1D8PS12, A132I/E138V/I952T/K510E)
Leucine--tRNA ligase [A132I,E138V,K510E,I952T], sequence (A0A1D8PS12 whole entry A132I/E138V/K510E/I952T): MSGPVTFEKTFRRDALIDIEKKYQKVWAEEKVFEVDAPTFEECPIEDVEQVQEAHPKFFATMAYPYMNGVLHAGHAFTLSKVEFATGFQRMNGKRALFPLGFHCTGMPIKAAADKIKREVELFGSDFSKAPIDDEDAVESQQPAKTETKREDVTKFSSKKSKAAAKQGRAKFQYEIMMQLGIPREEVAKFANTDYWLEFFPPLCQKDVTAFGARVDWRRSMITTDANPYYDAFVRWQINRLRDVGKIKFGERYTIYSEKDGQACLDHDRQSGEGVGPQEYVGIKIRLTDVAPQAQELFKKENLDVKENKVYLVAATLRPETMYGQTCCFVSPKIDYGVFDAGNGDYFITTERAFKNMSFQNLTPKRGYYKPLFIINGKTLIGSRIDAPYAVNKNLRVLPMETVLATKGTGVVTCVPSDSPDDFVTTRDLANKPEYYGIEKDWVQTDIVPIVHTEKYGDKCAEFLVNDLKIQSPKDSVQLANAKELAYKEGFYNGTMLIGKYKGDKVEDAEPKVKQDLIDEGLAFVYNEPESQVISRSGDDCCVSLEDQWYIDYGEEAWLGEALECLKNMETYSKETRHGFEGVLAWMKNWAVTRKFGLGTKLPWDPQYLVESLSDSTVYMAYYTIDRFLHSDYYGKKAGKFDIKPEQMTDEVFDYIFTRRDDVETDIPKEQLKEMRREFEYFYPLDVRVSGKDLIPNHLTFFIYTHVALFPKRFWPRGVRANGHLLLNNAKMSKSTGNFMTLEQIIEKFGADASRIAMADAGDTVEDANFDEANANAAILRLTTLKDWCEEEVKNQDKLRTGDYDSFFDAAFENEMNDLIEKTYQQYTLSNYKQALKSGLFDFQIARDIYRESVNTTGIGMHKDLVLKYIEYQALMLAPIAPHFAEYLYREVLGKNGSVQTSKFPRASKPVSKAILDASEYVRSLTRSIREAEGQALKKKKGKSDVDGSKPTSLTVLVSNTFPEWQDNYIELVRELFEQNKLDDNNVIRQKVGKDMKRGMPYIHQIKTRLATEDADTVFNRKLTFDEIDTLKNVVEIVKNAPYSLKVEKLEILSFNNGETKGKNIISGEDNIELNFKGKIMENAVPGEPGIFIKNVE
Experimental: as §1

CC[C@H]1O[C@@H](n2cnc3c(N)ncnc32)[C@H]2O[B-]3(OCc4cc(F)ccc43)OC12 (stereo partly drawn) [AN2690-AMP]
Kd (Leucine--tRNA ligase): 700 nM
Kd [1]: 46 µM
Kd [2]: 21 µM
